Measured values published in PubChem BioAssay (NCI).
Values joined by “and” are separate entries in the source; they are usually repeats but may differ in a detail not shown here. Equal entries are not always repeated.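 These data come from cells grown in 96-well plates and exposed to compound for 48 hours at five concentrations. At the GI50, growth is halved. TGI denotes the concentration required for complete inhibition of growth.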

Legend:
Assay in all cases: DTP human tumour cell line panel, 48 h
[1] = system: SF-295 CNS
[2] = system: NCI-H23 lung
[3] = system: HS 578T breast
[4] = system: SK-MEL-5 melanoma
[5] = system: SF-268 CNS
[6] = system: OVCAR-4 ovarian
[7] = system: NCI-H522 lung
[8] = system: NCI-H460 lung
[9] = system: U251 CNS
[10] = system: SNB-19 CNS

O=C1CC(C(=O)O)Cc2c(Br)ccc(O)c21 (stereo not given)
TGI [1]: > 100 µM
TGI [2]: > 100 µM
TGI [3]: > 100 µM
TGI [4]: > 100 µM
TGI [5]: > 100 µM
TGI [6]: > 100 µM
TGI [7]: > 100 µM
TGI [8]: > 100 µM
TGI [9]: > 100 µM
TGI [10]: > 100 µM

O=C(/C=C\c1cc(Br)ccc1O)/C=C/c1cc(Br)ccc1O
GI50 [1]: 0.538 µM
TGI [1]: 1.93 µM
GI50 [2]: 0.87 µM
TGI [2]: 2.68 µM
GI50 [3]: 1.25 µM
TGI [3]: 39.2 µM
GI50 [4]: 0.426 µM
TGI [4]: 1.66 µM
GI50 [5]: 1.33 µM
TGI [5]: 3.1 µM
GI50 [6]: 1.21 µM
TGI [6]: 6.87 µM
GI50 [8]: 1.57 µM
TGI [8]: 3.91 µM
GI50 [9]: 0.383 µM
TGI [9]: 1.55 µM
GI50 [10]: 1.03 µM
TGI [10]: 2.55 µM

Cc1cc(O[C@@H]2O[C@@H](C)[C@H](O)[C@@H](O)[C@H]2O)c2c3c(c(O[C@@H]4O[C@@H](C)[C@H](O)[C@@H](O)[C@H]4O)cc2c1)C(=O)c1c(O)cccc1C3=O
GI50 [1]: > 30 µM
TGI [1]: > 30 µM
GI50 [2]: > 30 µM
TGI [2]: > 30 µM
GI50 [3]: > 30 µM
TGI [3]: > 30 µM
GI50 [4]: > 30 µM
TGI [4]: > 30 µM
GI50 [5]: > 30 µM
TGI [5]: > 30 µM
GI50 [6]: > 30 µM
TGI [6]: > 30 µM
GI50 [8]: > 30 µM
TGI [8]: > 30 µM
GI50 [9]: > 30 µM
TGI [9]: > 30 µM
GI50 [10]: > 30 µM
TGI [10]: > 30 µM

CC12CCCC(C#N)(C1)OC2=O (stereo not given)
TGI [1]: > 100 µM
TGI [2]: > 100 µM
TGI [4]: > 100 µM
TGI [5]: > 100 µM
TGI [6]: > 100 µM
TGI [7]: > 100 µM
TGI [8]: > 100 µM
TGI [9]: > 100 µM
TGI [10]: > 100 µM

O=c1c2cccc(F)c2sc2c(NCCCNCCO)nc3ccccc3c12
GI50 [1]: 1.76 µM
TGI [1]: 3.19 µM
GI50 [2]: 1.54 µM
TGI [2]: 2.99 µM
GI50 [3]: 1.55 µM
TGI [3]: 3.53 µM
GI50 [4]: 1.71 µM
TGI [4]: 3.09 µM
GI50 [5]: 1.55 µM
TGI [5]: 3.12 µM
GI50 [6]: 1.77 µM
TGI [6]: 3.64 µM
GI50 [7]: 1.76 µM
TGI [7]: 3.69 µM
GI50 [8]: 0.653 µM
TGI [8]: 1.95 µM
GI50 [10]: 1.65 µM
TGI [10]: 3.17 µM

CN1C(c2ccccc2)CC(C)(O)CC1c1ccccc1 (stereo not given)
TGI [1]: > 100 µM
TGI [2]: > 100 µM
TGI [4]: > 100 µM
TGI [5]: > 100 µM
TGI [6]: > 100 µM
TGI [7]: > 100 µM
TGI [8]: > 100 µM
TGI [9]: > 100 µM
TGI [10]: > 100 µM

COc1cccc(CCNC(=O)CC(c2ccccc2)(c2ccccc2)c2ccccc2)c1
GI50 [1]: 4.36 µM
TGI [1]: > 100 µM
GI50 [3]: > 100 µM
TGI [3]: > 100 µM
GI50 [4]: 4.84 µM
TGI [4]: > 100 µM
GI50 [5]: 15 µM
TGI [5]: > 100 µM
GI50 [6]: > 100 µM
TGI [6]: > 100 µM
GI50 [8]: 10.5 µM
TGI [8]: > 100 µM
GI50 [9]: 4.86 µM
TGI [9]: 55.6 µM
GI50 [10]: 90.1 µM
TGI [10]: > 100 µM

O=C(O)CCC(=O)Oc1ccc(O)c2c1CCCC2=O
TGI [1]: > 100 µM
TGI [2]: > 100 µM
TGI [4]: > 100 µM
TGI [5]: > 100 µM
TGI [6]: > 100 µM
TGI [7]: > 100 µM
TGI [8]: > 100 µM
TGI [9]: > 100 µM
TGI [10]: > 100 µM

CN(C)c1ccc(/C=C(\C#N)c2ccccc2)cc1
GI50 [1]: 0.225 µM and 0.421 µM
TGI [1]: 0.99 µM and 5.97 µM
GI50 [2]: 0.957 µM and 1.33 µM and 0.76 µM
TGI [2]: > 100 µM
GI50 [4]: 0.398 µM and 0.45 µM and 0.345 µM
TGI [4]: 26.3 µM and 18 µM and 17.8 µM
TGI [5]: > 100 µM
GI50 [6]: 3.18 µM and 2.42 µM and 1.75 µM
TGI [6]: > 100 µM
GI50 [7]: 0.369 µM and 0.43 µM and 0.681 µM
GI50 [8]: 0.356 µM and 0.415 µM and 0.431 µM
GI50 [9]: 0.378 µM and 0.499 µM and 0.538 µM
TGI [9]: 55.4 µM and > 100 µM and 91.5 µM
GI50 [10]: 0.481 µM and 0.68 µM and 0.92 µM
TGI [10]: > 100 µM

N#CC(C(=O)CCC(=O)Nc1ccc(Cl)cc1)c1ccc(Cl)cc1 (stereo not given)
TGI [1]: > 100 µM
TGI [2]: > 100 µM
TGI [4]: > 100 µM
TGI [5]: > 100 µM
TGI [6]: > 100 µM
TGI [7]: > 100 µM
TGI [8]: > 100 µM
TGI [9]: > 100 µM
TGI [10]: > 100 µM

Cc1cc(Cl)ccc1NC(=O)CC1SC(=NC(=O)c2ccccc2Cl)NC1=O (stereo not given)
TGI [1]: > 100 µM
TGI [2]: > 100 µM
TGI [4]: 95.7 µM
TGI [5]: 36.7 µM
TGI [6]: 38.6 µM
TGI [7]: 29 µM
TGI [8]: > 100 µM
TGI [9]: 30.1 µM
TGI [10]: > 100 µM

C[C@@H]1CC[C@H]2[C@@H](C)C(OC/C=C/COC3O[C@@H]4O[C@@]5(C)CC[C@H]6[C@H](C)CC[C@@H]([C@H]3C)[C@@]46OO5)O[C@@H]3O[C@@]4(C)CC[C@@H]1[C@]32OO4 (stereo not given in full)
GI50 [1]: < 0.0252 µM
GI50 [2]: < 0.01 µM
TGI [2]: 18.5 µM
GI50 [3]: 0.0311 µM
TGI [3]: > 74.9 µM
GI50 [4]: 0.0491 µM
TGI [4]: 18.6 µM
GI50 [5]: 0.045 µM
TGI [5]: > 47.1 µM
GI50 [7]: 0.0898 µM
TGI [7]: > 100 µM
GI50 [8]: < 0.01 µM
TGI [8]: > 41.4 µM
GI50 [9]: < 0.01 µM
TGI [9]: > 20.9 µM
GI50 [10]: 5.19 µM
TGI [10]: > 100 µM

O=C(CN(Cc1ccccc1)Cc1ccccc1)N1CCc2c([nH]c3ccccc23)C1c1cccnc1 (stereo not given)
TGI [1]: > 100 µM
TGI [2]: 79.3 µM
TGI [4]: 20.1 µM
TGI [5]: > 100 µM
TGI [6]: > 100 µM
TGI [7]: 73.6 µM
TGI [8]: 89.9 µM
TGI [9]: 26.7 µM
TGI [10]: > 100 µM

CCCCOC(=O)/C=C\C(=O)NC(N)=O
GI50 [1]: 47.2 µM
TGI [1]: > 100 µM
GI50 [2]: 25.1 µM
TGI [2]: 72.5 µM
GI50 [3]: 23.5 µM
TGI [3]: > 100 µM
GI50 [4]: 24.3 µM
TGI [4]: 71.4 µM
GI50 [5]: 22.1 µM
TGI [5]: 61 µM
GI50 [6]: 17.1 µM
TGI [6]: 43.8 µM
GI50 [8]: 31.9 µM
TGI [8]: > 100 µM
GI50 [9]: 26.2 µM
TGI [9]: 89.3 µM
GI50 [10]: 41.2 µM
TGI [10]: > 100 µM

CCOC(=O)NC(=O)c1cn(CCCCCCCCCCC(=O)NCCCN2CCN(CCCNC(=O)CCCCCCCCCCn3cc(C(=O)NC(=O)OCC)c(=O)[nH]c3=O)CC2)c(=O)[nH]c1=O
TGI [1]: > 100 µM
TGI [2]: > 100 µM
TGI [5]: > 100 µM
TGI [7]: > 10 µM
TGI [8]: > 100 µM
TGI [9]: > 100 µM
TGI [10]: > 100 µM

Cc1ccc2nc(Sc3c([N+](=O)[O-])ncn3C)[nH]c2c1
TGI [1]: > 100 µM
TGI [2]: 50.5 µM
TGI [4]: 33.1 µM
TGI [5]: 83.9 µM
TGI [6]: 79.2 µM
TGI [8]: > 100 µM
TGI [9]: > 100 µM
TGI [10]: > 100 µM

COc1ccc(CN2C(=O)/C(=C\C(=O)c3ccc(OCCN4CCCC4)cc3)c3ccccc32)cc1
GI50 [1]: 14.8 µM
TGI [1]: 36.8 µM
GI50 [2]: 10.9 µM
TGI [2]: 36.5 µM
GI50 [3]: 14.3 µM
TGI [3]: 54.6 µM
GI50 [4]: 16.2 µM
TGI [4]: 38.8 µM
GI50 [5]: 13.2 µM
TGI [5]: 42.7 µM
GI50 [6]: 2.18 µM
TGI [6]: 5.44 µM
GI50 [8]: 2.03 µM
TGI [8]: 3.8 µM
GI50 [10]: 3.83 µM
TGI [10]: 15.1 µM
